Source: US20110009462A1, “STABLE, SYNERGISTIC MIXTURES” (LANXESS DEUTSCHLAND GMBH, priority 2007, published 2011)

Tests used:
Format in all cases: cell-based
Pseudomonas fluorescens [1] = assay: MIC and synergism (Kull) against Pseudomonas fluorescens, Landy minimal medium pH 7
Method: (§1) The synergism was determined by the method described by Kull et al. (F. C. Kull, P. C. Eismann, H. D. Sylvestrowicz, R. L. Mayer, Applied Microbiology 9, 538 to 541, 1961). The following relationships apply:
(§2) [formula] • Qa=amount of substance A • Qb=amount of substance B • MIC(A)=concentration of substance A which prevents microbial growth • MIC(B)=concentration of substance B which prevents microbial growth • MIC(A+B)=concentration of substance A+B which prevents microbial growth • SI=synergistic index, where SI=1 means additive effect • SI>1 means antagonism • SI<1 means synergism
(§3) Various concentrations of GDA and MIT and mixtures of the two abovementioned active substances were tested against the bacterium Pseudomonas fluorescens. The incubation is performed in Landy minimal medium at pH 7 and 26° C. The growth of Pseudomonas fluorescens was compared at various active substance concentrations with the growth without active substance. The lowest concentration at which growth was no longer detected is stated as the minimum inhibitory concentration (MIC).

Pseudomonas fluorescens [2] = assay: MIC and synergism (Kull) against Pseudomonas fluorescens, Landy minimal medium pH 9
Method: as §1, §2
as §3, with “at pH 9 and 26°” for “at pH 7 and 26°”, “compared at the various active” for “compared at various active”

Rhodotorula rubra = assay: MIC and synergism (Kull) against yeast Rhodotorula rubra, malt extract liquid medium
Method: as §1, §2
Various concentrations of GDA and MIT and mixtures of the two abovementioned active substances were tested against the yeast Rhodotorula rubra. The incubation is performed in malt extract liquid medium at 26° C. The growth of Rhodotorula rubra was compared at the various active substance concentrations with the growth without active substance. The lowest concentration at which growth was no longer detected is stated as the minimum inhibitory concentration (MIC).

Corynebacterium = assay: MIC and synergism (Kull) against Corynebacterium, Landy minimal medium pH 9
Method: as §1, §2
Various concentrations of GDA and MIT and mixtures of the two abovementioned active substances were tested against the bacterium Corynebacterium. The incubation is performed in Landy minimal medium at pH 9 and 26° C. The growth of Corynebacterium was compared at the various active substance concentrations with the growth without active substance. The lowest concentration at which growth was no longer detected is stated as the minimum inhibitory concentration (MIC).

[3] = Landy minimal medium, pH 9, 26° C.

| SMILES | MIC (Pseudomonas fluorescens [1]; Landy minimal medium, pH 7, 26° C.) | MIC (Pseudomonas fluorescens [2]; [3]) | MIC (Rhodotorula rubra; Rhodotorula rubra, malt extract liquid medium, 26° C.) | MIC (Corynebacterium; [3]) | MIC (Pseudomonas fluorescens [1]; pH 7) | MIC (Pseudomonas fluorescens [2]; pH 9) | MIC (Rhodotorula rubra; Rhodotorula) | MIC (Corynebacterium; pH 9) |
| --- | --- | --- | --- | --- | --- | --- | --- | --- |
| O=CCCCC=O [GDA, glutardialdehyde] | 20 ppm | 50 ppm | 100 ppm | 10 ppm |  |  |  |  |
| Cn1sccc1=O [MIT, 2-methyl-2H-isothiazol-3-one] |  |  |  |  | 5 µg/mL | 20 µg/mL | 50 µg/mL | 5 µg/mL |
